Format in all cases: in vitro ADME
What all share (design): tissue XenoTech LLC; host or cells: pooled human liver microsomes
On the technique in general: Liver microsomes are vesicles of endoplasmic reticulum, rich in cytochrome P450 enzymes.

One data set has as its target T1, UGT1A1 (Homo sapiens, UniProt P22309).
T1 sequence (P22309 26-533): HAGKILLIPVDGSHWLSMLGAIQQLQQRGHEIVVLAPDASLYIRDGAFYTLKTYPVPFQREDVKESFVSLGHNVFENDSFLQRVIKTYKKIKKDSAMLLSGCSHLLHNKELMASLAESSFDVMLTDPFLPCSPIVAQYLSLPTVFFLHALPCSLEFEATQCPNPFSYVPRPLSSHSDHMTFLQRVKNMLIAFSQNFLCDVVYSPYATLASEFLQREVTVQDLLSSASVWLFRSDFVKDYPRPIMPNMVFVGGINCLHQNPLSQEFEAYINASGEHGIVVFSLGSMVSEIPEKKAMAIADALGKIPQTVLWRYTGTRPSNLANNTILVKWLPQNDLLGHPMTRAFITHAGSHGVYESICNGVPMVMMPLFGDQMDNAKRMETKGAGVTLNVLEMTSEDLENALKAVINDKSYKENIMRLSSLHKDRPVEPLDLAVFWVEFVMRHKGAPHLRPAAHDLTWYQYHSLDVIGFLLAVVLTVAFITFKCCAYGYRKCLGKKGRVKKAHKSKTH
Put plainly: UGT1A1 inhibition in HLM (SN-38 glucuronidation). The conditions noted are these: for IC50: UGT1A1, SN-38 glucuronide formation in HLM. As to the method:
(§1) To assess drug-drug interactions (DDIs) potential caused by ticagrelor and ticagrelor-O-Glu through the inhibition of the major human UGTs enzymes, selective UGT probe substrates were co-incubated with ticagrelor or ticagrelor-O-Glu in HLM. The formation of metabolites, SN-38 glucuronide, chenodeoxycholic acid 24-acyl-β-D-glucuronide, trifluoperazine N-glucuronide, N-Acetyl serotonin glucuronide, mycophenolic acid glucuronide and 3′-azide-3′-deoxythymidine β-D-glucuronide, which could reflect the enzyme activities of UGT1A1, UGT1A3, UGT1A4, UGT1A6, UGT1A9 and UGT2B7, respectively, were quantified using LC-MS/MS. Three different concentrations of ticagrelor or ticagrelor-O-Glu (1, 10 and 100 μM) were added to the incubation system in the presence of selective UGT probe substrates (SN-38, chenodeoxycholic acid, trifluoperazine, N-Acetyl serotonin, mycophenolic acid and 3′-azide-3′-deoxythymidine), respectively. The assays were performed as described above. The control was treated with a vehicle solvent only. A triple determination was performed.
(§2) The percent inhibition relative to the control was calculated to indicate the UGTs or CYPs inhibition. For inhibition exceeding 50% of the control activity, nonlinear regression analysis was used to estimate the IC50 values using the GraphPad Prism 6 (GraphPad Software Inc., CA, United States).

The next data set deals with T2, UGT1A3 (Homo sapiens, UniProt P35503).
T2 sequence (P35503 29-534): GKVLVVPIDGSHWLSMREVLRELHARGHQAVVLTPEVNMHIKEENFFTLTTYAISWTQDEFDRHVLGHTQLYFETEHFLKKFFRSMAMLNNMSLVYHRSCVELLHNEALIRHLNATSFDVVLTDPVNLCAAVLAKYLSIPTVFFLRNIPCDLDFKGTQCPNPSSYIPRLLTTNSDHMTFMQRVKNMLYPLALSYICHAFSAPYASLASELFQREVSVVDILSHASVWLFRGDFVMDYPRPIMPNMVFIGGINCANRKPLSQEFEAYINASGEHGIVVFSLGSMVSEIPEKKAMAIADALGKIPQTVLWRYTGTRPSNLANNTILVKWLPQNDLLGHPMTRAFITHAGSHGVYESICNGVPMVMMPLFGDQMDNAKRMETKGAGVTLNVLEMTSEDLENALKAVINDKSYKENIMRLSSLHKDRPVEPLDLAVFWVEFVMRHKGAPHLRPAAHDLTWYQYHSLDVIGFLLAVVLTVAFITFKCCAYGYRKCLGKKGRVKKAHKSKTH
Nature of the data set: UGT1A3 inhibition in HLM (chenodeoxycholic acid glucuronidation). The conditions noted are these: for IC50: UGT1A3, chenodeoxycholic acid 24-acyl-β-D-glucuronide formation in HLM. The method, then:
as §1, §2

A further data set deals with T3, UGT1A6 (Homo sapiens, UniProt P19224).
T3 sequence (P19224 27-532): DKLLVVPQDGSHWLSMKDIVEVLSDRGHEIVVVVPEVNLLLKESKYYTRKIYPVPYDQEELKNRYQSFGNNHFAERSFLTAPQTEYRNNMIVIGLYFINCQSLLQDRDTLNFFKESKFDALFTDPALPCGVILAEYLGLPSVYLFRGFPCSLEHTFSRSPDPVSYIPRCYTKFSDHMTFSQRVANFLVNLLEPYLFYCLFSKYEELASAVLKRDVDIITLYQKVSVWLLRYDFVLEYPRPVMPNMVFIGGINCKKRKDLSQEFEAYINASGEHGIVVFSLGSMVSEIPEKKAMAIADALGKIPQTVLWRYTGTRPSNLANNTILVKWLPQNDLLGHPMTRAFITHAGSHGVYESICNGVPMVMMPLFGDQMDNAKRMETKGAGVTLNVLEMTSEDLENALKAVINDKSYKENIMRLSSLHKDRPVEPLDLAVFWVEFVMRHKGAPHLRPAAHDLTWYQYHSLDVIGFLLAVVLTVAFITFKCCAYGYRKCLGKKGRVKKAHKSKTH
Put plainly: UGT1A6 inhibition in HLM (N-Acetyl serotonin glucuronidation). The conditions noted are these: for IC50: UGT1A6, N-Acetyl serotonin glucuronide formation in HLM; for inhibition at 100 µM: human, human liver microsomes (HLM), probe N-Acetyl serotonin, HLM, 100 μM test compound. The method, then: as §1, §2

The target in the next data set is T4, UGT1A9 (Homo sapiens, UniProt O60656).
T4 sequence (O60656 26-530): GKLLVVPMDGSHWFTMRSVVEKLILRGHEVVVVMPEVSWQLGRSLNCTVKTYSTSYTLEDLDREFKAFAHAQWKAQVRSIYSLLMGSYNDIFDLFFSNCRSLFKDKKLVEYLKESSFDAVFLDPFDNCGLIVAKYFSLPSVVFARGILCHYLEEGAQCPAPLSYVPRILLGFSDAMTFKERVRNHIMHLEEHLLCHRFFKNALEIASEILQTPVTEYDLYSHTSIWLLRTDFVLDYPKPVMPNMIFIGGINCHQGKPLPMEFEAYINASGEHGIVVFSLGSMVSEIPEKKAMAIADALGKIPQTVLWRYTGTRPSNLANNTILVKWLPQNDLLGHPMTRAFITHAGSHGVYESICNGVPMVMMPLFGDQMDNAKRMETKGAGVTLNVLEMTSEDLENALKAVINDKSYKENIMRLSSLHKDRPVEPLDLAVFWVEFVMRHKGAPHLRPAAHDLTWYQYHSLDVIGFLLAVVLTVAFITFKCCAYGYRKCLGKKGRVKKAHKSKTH
Nature of the data set: UGT1A9 inhibition in HLM (mycophenolic acid glucuronidation). The conditions noted are these: for IC50: UGT1A9, mycophenolic acid glucuronide formation in HLM; for inhibition at 100 µM: human, human liver microsomes (HLM), probe mycophenolic acid, HLM, 100 μM test compound. The method, then:
as §1, §2

The mark [1] stands for this setting: HLM, concentration up to 100 μM.

What is called IC50 is the midpoint of a concentration-inhibition curve. Read a high IC50 as a need for much substance. For orientation: inhibition means the percentage by which the read-out fell short of the control. For `CCCSc1nc(N[C@@H]2C[C@H]2c2ccc(F)c(F)c2)c2nnn([C@@H]3C[C@H](OCCO[C@@H]4O[C@H](C(=O)O)[C@@H](O)[C@H](O)[C@H]4O)[C@@H](O)[C@H]3O)c2n1` [Ticagrelor-O-Glu, ticagrelor-O-glucuronide], the “inhibitory effect on UGT1A1” value on UGT1A1 (setting [1]) is recorded as “no significant inhibitory effects”. The 50% inhibitory concentration (IC50) is greater than 100 µM on UGT1A1, greater than 100 µM at UGT1A3, greater than 100 µM at UGT1A6 and roughly 100 µM against UGT1A9. Moreover, the “inhibitory effect on UGT1A3” value against UGT1A3 (setting [1]) is “no significant inhibitory effects”. For the same molecule, the inhibition at 100 µM at UGT1A6 is 28.5%; against UGT1A9, 61.4%.
As to `CCCSc1nc(N[C@@H]2C[C@H]2c2ccc(F)c(F)c2)c2nnn([C@@H]3C[C@H](OCCO)[C@@H](O)[C@H]3O)c2n1` [Ticagrelor], the IC50 at UGT1A1 is roughly 100 µM; at UGT1A3 it was greater than 100 µM; against UGT1A6, greater than 100 µM; against UGT1A9, greater than 100 µM. For the same molecule, the inhibition at 100 µM on UGT1A1 (human, human liver microsomes (HLM), probe SN-38, HLM, 100 μM test compound) amounted to 56.8%; at UGT1A3 (human, human liver microsomes (HLM), probe chenodeoxycholic acid, HLM, 100 μM test compound) it was 24.5%; at UGT1A6 it was 12.7%; at UGT1A9, 13.3%.
